Legend:
[1] = Salt screening with strong acids (chemical stability, HPLC purity); format: physicochemical
Method: A salt screening was conducted with 6 pharmaceutically acceptable strong acids. About 25 mg of compound 1 was weighed into a 1.5-mL glass vial, then 1.1 eq. of selected acid was weighted into the above glass vial. Liquid strong acid was pre-diluted in corresponding solvent. After addition of 0.5 mL solvent, the mixture was stirred at RT for 24 h. 0.5 mL more solvent was added to dilute several viscous systems at 4 h (highlighted as * in the summary table). If no solid was obtained, anti-solvent of heptane was added into the filtrates gradually at RT to induce precipitation (highlighted as ** in the summary table). The suspensions were filtered and the solids were vacuum dried at 40° C. for 4 h.
HPLC results (Table 33) confirmed significant purity decrease by>15%.

[2] = Slurry competition experiments (thermodynamic stability relationship); format: physicochemical; details: RT
Method: Slurry competition experiments were carried out between anhydrous and hydrates, to establish stability relationships. Appropriate amount of Form I was suspended in different solvents for pre-saturation at RT. Then the filtrate was added into equal amount of different forms, and the mixture was kept stirring at RT for certain time before XRPD tests.

[3] = Solubility estimation at RT by visual observation in selected solvent systems; details: RT
Method: The solubility of compound 1 Form I and Form X was estimated at RT by visual observation in selected solvent systems. Approximately 5 mg solids were weighed into 8 mL glass vial, and then solvent was added stepwise until solids were dissolved completely or a total of solvent volume reached 5 mL.

[4] = Slurry conversion of Form I and Form X in solvents (XRPD result); format: physicochemical; details: slurry at RT, Toluene
[5] = as above; format: physicochemical; details: for XRPD Result-Day 3: slurry at 80° C.
Method: Appropriate amount of Form I was added into different solvents to make suspensions, which were kept stirring at RT and 50° C. for 3 and 7 days, and at 80° C. for 3 days. Solid samples were collected by centrifugation and analyzed by XRPD. Forms I-IV, VII and VIII were obtained by slurry experiments of Form I.
Appropriate amount of Form X was added into different solvents to make suspensions, which were kept stirring at RT and 50° C. for 3 and 7 days, and at 80° C. for 3 days. Solid samples were collected by centrifugation and analyzed by XRPD.

[6] = slurry at 50° C., 2-MeTHF/CYH (1/4)
[7] = slurry at 50° C., ACN/water (1/9)
[8] = slurry at 50° C., Acetone/water (1/4)
[9] = slurry at 50° C., IPAc/heptane (1/4)
[10] = slurry at 50° C., IPE/water (200/1)
[11] = slurry at 50° C., Toluene/heptane (1/4)
[12] = slurry at RT, Acetone/water (1/4)
[13] = slurry at RT, IPAc/heptane (1/4)
[14] = slurry at RT, IPE/water (200/1)
[15] = slurry at RT, Toluene/heptane (1/4)

SMILES: [2H]C([2H])(Oc1cc(C)n(-c2c(C)cnc(-n3ccc(C(C)(C)O)n3)c2F)c(=O)c1Cl)c1ncc(F)cc1F (atropisomer, axis not shown; (M)) [compound 1, (M)-3-chloro-4-((3,5-difluoropyridin-2-yl)methoxy-d2)-3′-fluoro-2′-(3-(2-hydroxypropan-2-yl)-1H-pyrazol-1-yl)-5′,6-dimethyl-2H-[1,4′-bipyridin]-2-one]
- chemical stability under strong acidic conditions ([1]; salt screening with 6 strong acids): chemically unstable

SMILES: [2H]C([2H])(Oc1cc(C)n(-c2c(C)cnc(-n3ccc(C(C)(C)O)n3)c2F)c(=O)c1Cl)c1ncc(F)cc1F [Form I + IV]
- Output of competitive slurry (XRPD) ([2]; Water, 3 d): Form IV
- Output of competitive slurry (XRPD) ([2]; Water/MeOH (9/1), 3 d): Form IV + IX
- Output of competitive slurry (XRPD) ([2]; Water/MeOH (19/1), 3 d): Form IV + IX

SMILES: [2H]C([2H])(Oc1cc(C)n(-c2c(C)cnc(-n3ccc(C(C)(C)O)n3)c2F)c(=O)c1Cl)c1ncc(F)cc1F [Form I, starting material]
- Purity (area %) ([1]; salt screening samples, HPLC, chemical stability under strong acid): 99.29 area %

SMILES: [2H]C([2H])(Oc1cc(C)n(-c2c(C)cnc(-n3ccc(C(C)(C)O)n3)c2F)c(=O)c1Cl)c1ncc(F)cc1F [Form IV + IX]
- Output of competitive slurry (XRPD) ([2]; Water, 3 d): Form X + IV (trace)
- Output of competitive slurry (XRPD) ([2]; Water/MeOH (9/1), 3 d): Form X + IV
- Output of competitive slurry (XRPD) ([2]; Water/MeOH (17/3), 3 d): Form X
- Output of competitive slurry (XRPD) ([2]; Water/MeOH (19/1), 3 d): Form X

SMILES: [2H]C([2H])(Oc1cc(C)n(-c2c(C)cnc(-n3ccc(C(C)(C)O)n3)c2F)c(=O)c1Cl)c1ncc(F)cc1F [Form IV + X]
- Output of competitive slurry (XRPD) ([2]; Water, 2 d): Form X

SMILES: [2H]C([2H])(Oc1cc(C)n(-c2c(C)cnc(-n3ccc(C(C)(C)O)n3)c2F)c(=O)c1Cl)c1ncc(F)cc1F [Form I]
- Estimated Solubility ([3]; CYH): <1000 µg/mL
- Estimated Solubility ([3]; Heptane): <1000 µg/mL
- Estimated Solubility ([3]; IPE): <1000 µg/mL
- Estimated Solubility ([3]; Water): <1000 µg/mL
- Estimated Solubility ([3]; visual observation, most tested solvents): > 100000 µg/mL
- XRPD Result (6 d) [4]: Form IV (6 d)
- XRPD Result Day 3 [5, 6]: Form VII
- XRPD Result Day 7 [5, 6]: Form III
- XRPD Result Day 3 [5, 7]: Form IV
- XRPD Result Day 7 [5, 7]: Form IV
- XRPD Result Day 3 [5, 8]: Form IV
- XRPD Result Day 7 [5, 8]: Form IV
- XRPD Result Day 3 ([5]; slurry at 50° C., CYH): Form IV
- XRPD Result Day 7 ([5]; slurry at 50° C., CYH): Form IV
- XRPD Result Day 3 ([5]; slurry at 50° C., Heptane): Form IV
- XRPD Result Day 7 ([5]; slurry at 50° C., Heptane): Form IV
- XRPD Result Day 3 [5, 9]: Form IV + VIII
- XRPD Result Day 7 [5, 9]: Form IV + VIII
- XRPD Result Day 3 ([5]; slurry at 50° C., IPE): Form IV
- XRPD Result Day 7 ([5]; slurry at 50° C., IPE): Form IV + VIII
- XRPD Result Day 3 [5, 10]: Form IV
- XRPD Result Day 7 [5, 10]: Form IV
- XRPD Result Day 3 ([5]; slurry at 50° C., MTBE): Form III
- XRPD Result Day 7 ([5]; slurry at 50° C., MTBE): Form III
- XRPD Result Day 3 ([5]; slurry at 50° C., MeCYH): Form IV
- XRPD Result Day 7 ([5]; slurry at 50° C., MeCYH): Form IV
- XRPD Result Day 3 ([5]; slurry at 50° C., Toluene): Clear
- XRPD Result Day 7 ([5]; slurry at 50° C., Toluene): Clear
- XRPD Result Day 3 [5, 11]: Form IV
- XRPD Result Day 7 [5, 11]: Form IV
- XRPD Result Day 3 ([5]; slurry at 50° C., Water): Form IV
- XRPD Result Day 7 ([5]; slurry at 50° C., Water): Form IV
- XRPD Result-Day 3 ([5]; CYH): Form VIII
- XRPD Result-Day 3 ([5]; Heptane): Form VIII
- XRPD Result-Day 3 ([5]; MeCYH): Form VIII
- XRPD Result-Day 3 ([5]; Water): Form IV
- XRPD Result Day 3 ([5]; slurry at RT, ACN/water (1/9)): Form IV
- XRPD Result Day 7 ([5]; slurry at RT, ACN/water (1/9)): Form IV
- XRPD Result Day 3 [5, 12]: Form VII
- XRPD Result Day 7 [5, 12]: Form VII
- XRPD Result Day 3 ([5]; slurry at RT, CYH): Form I
- XRPD Result Day 7 ([5]; slurry at RT, CYH): Form I
- XRPD Result Day 3 ([5]; slurry at RT, Heptane): Form I
- XRPD Result Day 7 ([5]; slurry at RT, Heptane): Form I
- XRPD Result Day 3 [5, 13]: Form IV
- XRPD Result Day 7 [5, 13]: Form IV
- XRPD Result Day 3 [5, 14]: Form IV
- XRPD Result Day 7 [5, 14]: Form IV
- XRPD Result Day 3 ([5]; slurry at RT, MTBE): Form III
- XRPD Result Day 7 ([5]; slurry at RT, MTBE): Form III
- XRPD Result Day 3 ([5]; slurry at RT, MeCYH): Form I
- XRPD Result Day 7 ([5]; slurry at RT, MeCYH): Form I
- XRPD Result Day 3 ([5]; slurry at RT, Toluene): Gel-like on the wall
- XRPD Result Day 7 ([5]; slurry at RT, Toluene): Gel-like on the wall
- XRPD Result Day 3 [5, 15]: Form IV
- XRPD Result Day 7 [5, 15]: Form IV
- XRPD Result Day 3 ([5]; slurry at RT, Water): Form I
- XRPD Result Day 7 ([5]; slurry at RT, Water): Form I

SMILES: [2H]C([2H])(Oc1cc(C)n(-c2c(C)cnc(-n3ccc(C(C)(C)O)n3)c2F)c(=O)c1Cl)c1ncc(F)cc1F [Form VIII]
- Output of competitive slurry (XRPD) ([2]; Water, 1 d): Form I
